Results published in patent US20160192643A1, “NEW ANTIFUNGAL COMPOSITION FOR TREATMENT OF SOIL” (CERADIS B.V., priority 2013, published 2016).

How the values were obtained:
most fungi = settings: cited from earlier work
[1] = neutral aqueous systems; cited from earlier work
Agaricus bisporus = assay: Polyelectrolyte formulation applied on mushroom growth substrate: total yield of mushrooms; format: in vivo; settings: natamycin 500 ppm where present
Protocol: Naturally contaminated Phase III compost inoculated with mushroom spawn of the edible mushroom species Agaricus bisporus prepared using well known methods was obtained from a local Dutch grower
Formulations described in Table 3 were generated as described in Example 1 for CitoCal.
Boxes with a size of 30 (1)×25 (b)×10 (h) cm were filled with the Phase III compost and incubated for 4 days at a temperature of 21° C. in the dark. After this incubation period, the white mushroom mycelium was visible on the surface of the compost. The compost was covered with 3 cm of casing prepared using well known methods after which 30 ml of the different formulations was sprayed onto the casing. Each formulation was examined in duplicate. The next day, 200 ml of water was added to each box after which the boxes were incubated for 7 days at 21° C. in the dark allowing the mycelium to grow to the surface of the casing. After this period the white mushroom mycelium was visible at the surface of the casing. The boxes were further incubated in the dark at a temperature of 18° C.
Dehydration of the casing surface was prevented by spraying sufficient and equal amounts of water (circa 10 ml) onto the casing in each box every few days using well known methods. […] During a period of 46 days mushrooms were harvested every day; the total yield was determined by measuring the weight of the mushrooms.

Pythium aphanidermatum = assay: Polyelectrolyte formulation against Pythium aphanidermatum in Chrysanthemum soil
Protocol: Soil was artificially infected with Pythium aphanidermatum spores using well known methods. Crates of 40×60 cm each were filled with infected soil. Transplants of Chrysanthemum were planted after the artificial infection. Each plot consisted of 2 crates with each 15 plants (30 plants per plot). The trial was conducted in four replicates. A single application was done just after transplant by spraying the AllyloCal polyelectrolyte complex over the crop at 1000 l/ha. Immediately after the treatment, the products were rinsed in the soil with 3 liter of water per m^2. The applied concentration in the spray suspension was 1000 ppm of natamycin. After 10 days the numbers of healthy, diseased and dead plants were counted.
At the end of the trial, after 44 days, the average plant height, the average plant weight and the rooting (in percentage of the bottom of the crates covered with roots) were measured.

[2] = 10 days after infection, n = 120, single spray at 1000 l/ha, 1000 ppm natamycin
[3] = compared with the untreated plants (n = 120), after 44 days
[4] = end of the trial, after 44 days

SMILES: C[C@@H]1C/C=C/C=C/C=C/C=C/[C@H](O[C@@H]2O[C@H](C)[C@@H](O)[C@H](N)[C@@H]2O)C[C@@H]2O[C@](O)(C[C@@H](O)C[C@H]3O[C@@H]3/C=C/C(=O)O1)C[C@H](O)[C@H]2C(=O)O [Natamycin, natamycin]
- Minimal Inhibitory Concentration (MIC) (most fungi): less than 10 ppm
- solubility [1]: 30-40 ppm
- Total yield (gram/2 boxes) (Agaricus bisporus; total mushroom weight after 46 days of incubation, 30 ml formulation sprayed onto casing, naturally contaminated Phase III compost): 359 gram/2 boxes
- Yield increase (%) (Agaricus bisporus; versus Control, 46 days of incubation): −1.4%
- Dead plants (%) (Pythium aphanidermatum; [2]): 6%
- Diseased plants (%) (Pythium aphanidermatum; [2]): 34%
- Healthy plants (%) (Pythium aphanidermatum; [2]): 60%
- Percentage improvement of plant height (%) (Pythium aphanidermatum; [3]): 5.5%
- Percentage improvement of plant rooting (%) (Pythium aphanidermatum; [3]): 2.3%
- Percentage improvement of plant weight (%) (Pythium aphanidermatum; [3]): 3.9%
- average plant height (Pythium aphanidermatum; [4]): 59.9 cm
- average plant weight (Pythium aphanidermatum; [4]): 43.1 grams
